# Test results published in patent publication US20230085307A1, “PYRIDAZINONE COMPOUND AND HERBICIDE” (NISSAN CHEMICAL CORPORATION, priority 2019, published 2023).
# Experiments:
# lambsquarters = assay: Test Example 5: herbicidal effect by foliage application, plastic box (Table 20, symbol O); type: in vivo, lambsquarters (Chenopodium album); settings: foliage application, AAH 320 g/ha, evaluated three weeks after application
# In short: (§1)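 Post-emergence foliar test in sterilized diluvial soil. Compound applied as water-diluted emulsion at a predetermined rate to 14-day-old plants; evaluation at three weeks.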
# redroot pigweed = assay: Test Example 5: herbicidal effect by foliage application, plastic box (Table 20, symbol N); type: in vivo, redroot pigweed (Amaranthus retroflexus); settings: foliage application, AAH 320 g/ha, evaluated three weeks after application
# In short: as §1
# Italian ryegrass = assay: Test Example 5: herbicidal effect by foliage application, plastic box (Table 20, symbol K); type: in vivo, Italian ryegrass (Lolium multiflorum); settings: foliage application, AAH 320 g/ha, evaluated three weeks after application
# In short: as §1
# velvetleaf = assay: Test Example 5: herbicidal effect by foliage application, plastic box (Table 20, symbol M); type: in vivo, velvetleaf (Abutilon theophrasti); settings: foliage application, AAH 320 g/ha, evaluated three weeks after application
# In short: as §1
# Japanese bulrush = assay: Test Example 1: herbicidal activity, application before weed generation under submerged conditions (Table 16, symbol B); type: in vivo, Japanese bulrush (Schoenoplectus juncoides); settings: 320 g/ha applied herbicide
# In short: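 Alluvial soil was flooded to 4 cm depth, weed seeds were sown mixed and 2.5-leaf rice seedlings were transplanted. On sowing day, the compound's emulsion, diluted in water to a set dose, was applied to the water surface. Plants grew at 25–30 °C and were scored 0–5 after three weeks.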
# persian speedwell = assay: Test Example 5: herbicidal effect by foliage application, plastic box (Table 20, symbol R); type: in vivo, Persian speedwell (Veronica persica); settings: foliage application, AAH 320 g/ha, evaluated three weeks after application
# In short: as §1
# barnyard grass [1] = assay: Test Example 5: herbicidal effect by foliage application, plastic box (Table 20, symbol H); type: in vivo, barnyard grass (Echinochloa crus-galli); settings: foliage application, AAH 320 g/ha, evaluated three weeks after application
# In short: as §1
# southern crabgrass = assay: Test Example 5: herbicidal effect by foliage application, plastic box (Table 20, symbol F); type: in vivo, southern crabgrass (Digitaria ciliaris); settings: foliage application, AAH 320 g/ha, evaluated three weeks after application
# In short: as §1
# late watergrass = assay: Test Example 1: herbicidal activity, application before weed generation under submerged conditions (Table 16, symbol A); type: in vivo, late watergrass (Echinochloa oryzicola); settings: 320 g/ha applied herbicide
# Text: (§2) [Test Example 1] Herbicidal Activity Test by Application before Weed Generation under Submerged Conditions After alluvial soil was placed into 1/10000 are of Wagner pot, water was poured and mixed to form a submerged condition having a water depth of 4 cm. Seeds of late watergrass, Japanese bulrush, and oval-leafed pondweed were sowed in a mixed manner in the aforementioned pot, and then 2.5 leaf stage rice plant seedlings were transplanted thereto. On the day of sowing seeds, the emulsion agent of the compound of the present invention prepared according to Formulation Example 2 was diluted with water so as to achieve a predetermined herbicide amount, and the diluted emulsion agent was applied to the surface of the water. The pot was placed in a greenhouse at 25° C. to 30° C. for growth of the plants. Three weeks after the herbicide application, the effect of the herbicide on each plant was evaluated according to the following criteria. Evaluation Criteria 5: Herbicidal rate of 90% or more (almost completely withered) 4: Herbicidal rate of 70% or more and less than 90% 3: Herbicidal rate of 40% or more and less than 70% 2: Herbicidal rate of 20% or more and less than 40% 1: Herbicidal rate of 5% or more and less than 20% 0: Herbicidal rate of 5% or less (almost no effect)
# windgrass = assay: Test Example 5: herbicidal effect by foliage application, plastic box (Table 20, symbol L); type: in vivo, windgrass (Apera spica-venti); settings: foliage application, AAH 320 g/ha, evaluated three weeks after application
# In short: as §1
# oval-leafed pondweed = assay: Test Example 1: herbicidal activity, application before weed generation under submerged conditions (Table 16, symbol C); type: in vivo, oval-leafed pondweed (Monochoria vaginalis); settings: 320 g/ha applied herbicide
# Text: as §2
# blackgrass = assay: Test Example 5: herbicidal effect by foliage application, plastic box (Table 20, symbol J); type: in vivo, blackgrass (Alopecurus myosuroides); settings: foliage application, AAH 320 g/ha, evaluated three weeks after application
# In short: as §1
# green foxtail = assay: Test Example 5: herbicidal effect by foliage application, plastic box (Table 20, symbol G); type: in vivo, green foxtail (Setaria viridis); settings: foliage application, AAH 320 g/ha, evaluated three weeks after application
# In short: as §1
# wild oat = assay: Test Example 5: herbicidal effect by foliage application, plastic box (Table 20, symbol I); type: in vivo, wild oat (Avena fatua); settings: foliage application, AAH 320 g/ha, evaluated three weeks after application
# In short: as §1
# barnyard grass [2] = assay: Test Example 3: herbicidal effect by foliage application, Wagner pot (Table 18, symbol H); type: in vivo, barnyard grass (Echinochloa crus-galli); settings: amount of applied herbicide 320 g/ha
# In short: (§3)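 Plants were sown in alluvial soil held under 0.1–0.5 cm standing water and grown 14 days in a greenhouse at 25–30 °C. An emulsifiable formulation, water-diluted to the set dose, was then sprayed onto the foliage, and effects were scored three weeks later using previously defined criteria.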
# rice flat sedge = assay: Test Example 3: herbicidal effect by foliage application, Wagner pot (Table 18, symbol E); type: in vivo, rice flat sedge (Cyperus iria); settings: amount of applied herbicide 320 g/ha
# In short: as §3
# Chinese sprangletop = assay: Test Example 3: herbicidal effect by foliage application, Wagner pot (Table 18, symbol D); type: in vivo, chinese sprangletop (Leptochloa chinensis); settings: amount of applied herbicide 320 g/ha
# In short: as §3
Compound,"O: lambsquarters, herbicidal effect (criteria 0-5) (lambsquarters)","N: redroot pigweed, herbicidal effect (criteria 0-5) (redroot pigweed)","K: Italian ryegrass, herbicidal effect (criteria 0-5) (Italian ryegrass)","M: velvetleaf, herbicidal effect (criteria 0-5) (velvetleaf)",Herbicidal effect on B: Japanese bulrush (grade 0-5) (Japanese bulrush),"R: persian speedwell, herbicidal effect (criteria 0-5) (persian speedwell)","H: barnyard grass, herbicidal effect (criteria 0-5) (barnyard grass [1])","F: southern crabgrass, herbicidal effect (criteria 0-5) (southern crabgrass)",Herbicidal effect on A: late watergrass (grade 0-5) (late watergrass),"L: windgrass, herbicidal effect (criteria 0-5) (windgrass)",Herbicidal effect on C: oval-leafed pondweed (grade 0-5) (oval-leafed pondweed),"J: blackgrass, herbicidal effect (criteria 0-5) (blackgrass)","G: green foxtail, herbicidal effect (criteria 0-5) (green foxtail)","I: wild oat, herbicidal effect (criteria 0-5) (wild oat)",herbicidal effect on H: barnyard grass (barnyard grass [2]),herbicidal effect on E: rice flat sedge (rice flat sedge),herbicidal effect on D: Chinese sprangletop (Chinese sprangletop)
CSCCOc1cccc(-c2sc3ccc(F)cc3c2-c2c(O)c(C)nn(C)c2=O)c1 [2-273],0 (Herbicidal rate of 5% or less (almost no effect)),2 (Herbicidal rate of 20% or more and less than 40%),1 (Herbicidal rate of 5% or more and less than 20%),0 (Herbicidal rate of 5% or less (almost no effect)),0 (Herbicidal rate of 5% or less (almost no effect)),4 (Herbicidal rate of 70% or more and less than 90%),0 (Herbicidal rate of 5% or less (almost no effect)),0 (Herbicidal rate of 5% or less (almost no effect)),3 (Herbicidal rate of 40% or more and less than 70%),0 (Herbicidal rate of 5% or less (almost no effect)),0 (Herbicidal rate of 5% or less (almost no effect)),0 (Herbicidal rate of 5% or less (almost no effect)),0 (Herbicidal rate of 5% or less (almost no effect)),0 (Herbicidal rate of 5% or less (almost no effect)),,,
CCCC(=O)Oc1c(C)nn(C)c(=O)c1-c1c(-c2ccc(Cl)cc2Cl)sc2ccc(F)cc12 [2-347],3 (Herbicidal rate of 40% or more and less than 70%),0 (Herbicidal rate of 5% or less (almost no effect)),0 (Herbicidal rate of 5% or less (almost no effect)),0 (Herbicidal rate of 5% or less (almost no effect)),0 (Herbicidal rate of 5% or less (almost no effect)),4 (Herbicidal rate of 70% or more and less than 90%),0 (Herbicidal rate of 5% or less (almost no effect)),0 (Herbicidal rate of 5% or less (almost no effect)),3 (Herbicidal rate of 40% or more and less than 70%),3 (Herbicidal rate of 40% or more and less than 70%),0 (Herbicidal rate of 5% or less (almost no effect)),0 (Herbicidal rate of 5% or less (almost no effect)),0 (Herbicidal rate of 5% or less (almost no effect)),3 (Herbicidal rate of 40% or more and less than 70%),4 (Herbicidal rate of 70% or more and less than 90%),4 (Herbicidal rate of 70% or more and less than 90%),4 (Herbicidal rate of 70% or more and less than 90%)
